Test results published in a melting point compilation (Tetko et al.; mined from patent text by program, amines drawn as free bases though some values may be those of a salt).

Compared with `COc1ccc(S(=O)(=O)N2Cc3[nH]c4ccccc4c3CC2C(=O)O)cc1` (configuration not stated), `CCSc1nn2c(-c3ccc(OC)cc3)nnc2c2ccccc12` is higher in melting point: 154 °C for the first, 176 to 178 °C for the second.

Compared with `CN1C(=O)C(NC(=O)NCc2ccccc2)N=C(c2ccccc2)c2ccccc21` (configuration not stated), `O=C(Nc1nc(-c2ccccc2)cs1)C(=O)Nc1nc(-c2ccccc2)cs1` is higher in melting point: 240 to 242 °C for the first, 292 to 293 °C for the second.

First: COc1ccc(Nc2nc(Nc3ccc(OC)c(F)c3)nc(OCC3CCCCC3)n2)cc1F
Second: COc1cc(-c2ccccc2F)nc(-c2cccc(C)n2)n1
The melting point of the first is higher: 181 °C for the first, 99.5 °C for the second.

Compared with `CSc1ccc(/C(=C/CO)c2ccc(I)cc2)cc1`, `O=C(OCc1cccnc1)c1ccc(F)cc1` is higher in melting point: 91 to 95 °C for the first, 142 to 143 °C for the second.

Compared with `CS(=O)(=O)ON=C(C#N)C(N)=O`, `COc1ccsc1C(=O)C=C(C)C` is lower in melting point: 136 to 142 °C for the first, 49 to 51 °C for the second.

First: COc1cc2[nH]c(=O)n(CC(C)S)c(=O)c2cc1OC (configuration not stated)
Second: O=c1[nH]c2cc(Cl)cc(Cl)c2c(=O)n1Cc1cccc([N+](=O)[O-])c1
The melting point of the first is lower: 262 to 264 °C for the first, 314 to 317 °C for the second.

Compared with `O=C(Cn1c(=O)c2cc(Cl)ccc2n(Cc2ccc(Cl)cc2Cl)c1=O)OCCO`, `Cn1c(=O)c2c(ncn2CC(O)COC(=O)COc2ccc(Cl)cc2)n(C)c1=O` (configuration not stated) is lower in melting point: 167 to 168 °C for the first, 81 to 83 °C for the second.

Compared with `Cc1ccc(C)c(OC(C)(C)C(=O)O)c1`, `COc1ccc(C(=O)O)c2c1OC(C)(C)C2` is higher in melting point: 107 to 109 °C for the first, 147 to 149 °C for the second.

First: O=C(O)CCCCCCCCCNS(=O)(=O)c1ccc(Cl)cc1
Second: O=C(O)CCCc1cc2nc(Cl)ccc2n1S(=O)(=O)c1ccc(N2CCCC2)cc1
The melting point of the first is higher: 192 to 194 °C for the first, 88 °C for the second.

First: CCOC(=O)c1c(C)nc(O)nc1O
Second: CCOC(=O)c1cc(-c2cccc(OC)c2)[nH]c1N
The melting point of the first is higher: 145 to 148 °C for the first, 96 to 97 °C for the second.

First: CC1Cc2cc3c(cc2C(c2ccc([N+](=O)[O-])cc2)=NN1C(N)=NO)OCO3 (configuration not stated)
Second: COC(=O)C(C)c1ccc2c(c1)Cc1cc([N+](=O)[O-])ccc1-2 (configuration not stated)
The melting point of the first is higher: 138 to 145 °C for the first, 105 to 107 °C for the second.

Compared with `COC(=O)CCCc1nc(Cl)c2c(n1)[nH]c1ccccc12`, `COC(=O)CCNC(=O)C(=Cc1ccccc1)CSC(C)=O` is lower in melting point: 258 °C for the first, 54 °C for the second.

First: O=C(Nc1ccccn1)C(CC1CCCC1)c1ccc(-c2cccnc2)cc1 (configuration not stated)
Second: CCS(=O)(=O)Nc1ccc(CN(CC2(c3ccccn3)CCCCC2)C(=O)Nc2c(C(C)C)cccc2C(C)C)cc1
The melting point of the first is lower: 139 to 140 °C for the first, 209 °C for the second.

First: COc1nc(-c2ccccc2)c(-c2ccc(=O)n(C(C)C)n2)nc1C#N
Second: CCONC(=O)c1cccc(-c2nc3ccccc3c(=O)o2)c1
The melting point of the first is lower: 170 to 172 °C for the first, 179 to 183 °C for the second.

First: CCCc1cc2c(=O)n3cc(C(N)=O)ccc3nc2s1
Second: CCCc1nc2cc([N+](=O)[O-])ccc2n1Cc1ccc(C(=O)OCC)cc1
The melting point of the first is higher: 260 to 264 °C for the first, 136 to 138 °C for the second.

First: CC12CCC3c4ccc(O)cc4CC(Sc4ccc(Br)cc4)C3C1CCC2O (configuration not stated)
Second: Oc1ccc2c(c1)COc1c-2cc2ccc(O)cc2c1-c1ccccc1
The melting point of the first is lower: 165 to 166 °C for the first, 225 to 227 °C for the second.

Compared with `Cc1ccc(C(=NO)C(F)(F)F)cc1`, `Cc1cc(-c2ccc(C(F)(F)F)cc2)cn2c(C(=O)O)cnc12` is higher in melting point: 54 to 68 °C for the first, 211 °C for the second.

First: COc1ccc(CNC(=O)c2[nH]c(C)c(-c3nc4ccc(C(=O)c5ccccc5)cc4[nH]3)c2C)cc1OC
Second: CC(C)=C1C(=O)N(c2cccc3c(N)cccc23)C(=O)/C1=C(\C)c1cc(-c2ccccc2)sc1C
The melting point of the first is lower: 120 to 122 °C for the first, 155 to 158 °C for the second.

First: Fc1nc(NCc2cccnc2)c2nc[nH]c2n1
Second: Cc1nc(N2C(=O)N(CCc3ccc(F)cc3)CC2O)sc1C(=O)NCc1cccnc1 (configuration not stated)
The melting point of the first is higher: 218 to 220 °C for the first, 182 to 184 °C for the second.

First: O=C(O)c1ccc2c(COc3cccnc3)csc2c1
Second: CCCCC(=O)c1c(-c2ccc3cc(O)ccc3c2)oc2ccccc12
The melting point of the first is higher: 248 to 250 °C for the first, 148 to 149 °C for the second.

First: CCn1c(=O)n(CCCCC(C)(O)CC)c(=O)c2c1ncn2Cc1ccccc1 (configuration not stated)
Second: CCCCc1nc2c(C)cccc2n1Cc1ccc([N+](=O)[O-])cc1
The melting point of the first is lower: 93 to 94 °C for the first, 115 to 116 °C for the second.

First: C[C@H]1[C@H]2O[C@H]2C(S(=O)(=O)c2ccccc2)=C[C@H](C)[C@H]1O[Si](C)(C)C(C)(C)C
Second: CC(C)(C)OC(=O)Nc1cc(Cl)c(C#Cc2ccccc2)cc1[N+](=O)[O-]
The melting point of the first is lower: 89 to 90 °C for the first, 166 to 167 °C for the second.

First: COCCOc1cc2ncnc(NC3=CC(=O)C(Oc4ccc(-n5ccnc5)cc4)=CC3=O)c2cc1OC
Second: CCOC(=O)c1c(CN2CCOCC2)nc2cc(OC)c(OC)cc2c1-c1ccc(OC)c(OC)c1
The melting point of the first is lower: 124 to 132 °C for the first, 146 to 147 °C for the second.

First: Cc1cccc(-c2nc3cnccc3[nH]2)c1
Second: Cc1cccc(-n2nc(C)c(C)c2-c2cc3cnccc3s2)n1
The melting point of the first is higher: 202 to 204 °C for the first, 108 to 109 °C for the second.

First: COc1ccc2nc(-c3cc(C)c(OCCN4CCCC4)c(C)c3)[nH]c(=O)c2c1
Second: COc1cc2c(cc1N1CCN(C)CC1)N(C(=O)c1ccc(-c3ccc(-c4noc(C)n4)cc3C)cc1)CC2
The melting point of the first is lower: 201 to 203 °C for the first, 213 to 214 °C for the second.

First: COc1ccc(Nc2c([N+](=O)[O-])cc([N+](=O)[O-])cc2C(F)(F)F)nc1
Second: O=C1CCCc2nc3ccccc3c(NCc3ccccc3C(F)(F)F)c21
The melting point of the first is lower: 102 to 105 °C for the first, 167 °C for the second.

Compared with `CC(=CC(=O)c1cccnc1)N1CCCC1`, `CC1CCc2c(N3CCN(Cc4ccc(N)cc4)CC3)c(F)cc3c(=O)c(C(=O)O)cn1c23` (configuration not stated) is higher in melting point: 116 to 118 °C for the first, 216 to 218 °C for the second.

First: CC(C)(C)OC(=O)Nc1cc(Cl)cc(C(F)(F)F)c1
Second: CCC(Oc1cc(Cl)cc(Cl)c1Cl)C(=O)O (configuration not stated)
The melting point of the first is lower: 91 to 92 °C for the first, 106 to 114 °C for the second.

First: Nc1nc(OCc2cccc(Br)c2)ncc1F
Second: Nc1nc2ccc(Cc3cccs3)cc2s1
The melting point of the first is lower: 143 to 145 °C for the first, 188 to 191 °C for the second.

Compared with `CCOC(=S)c1cccc2nnsc12`, `Cc1ccc(S(=O)(=O)Nc2cccc([N+](=O)[O-])c2N)cc1` is higher in melting point: 114 to 115 °C for the first, 195 °C for the second.

First: Cc1cc(C(=O)Nc2ccccc2O)cc(C)c1O
Second: CC1(C)c2ccccc2C(C#N)c2ccccc21
The melting point of the first is higher: 142 to 145 °C for the first, 91 to 92 °C for the second.

Compared with `O[C@@H](CNCCOc1ccc2oc(-c3noc(C(F)(F)F)n3)cc2c1)COc1ccccc1F`, `Cc1nnc(-c2ccc3occ(-c4ccc(S(=O)C(F)(F)F)cc4)c3c2)o1` (configuration not stated) is higher in melting point: 117 to 119 °C for the first, 183 to 184 °C for the second.

First: O=C(NCC/C=C/CCCNC(=O)c1ccc(OC(F)F)cc1)c1ccc(OC(F)F)cc1
Second: Cc1oc(-c2ccccc2)nc1COc1ccc(CON=C(CCCCC(=O)O)c2ccccc2)cc1
The melting point of the first is higher: 122 to 123 °C for the first, 101 to 102 °C for the second.

First: CCOCCn1c(CN2CCN(CCNc3nc4cnccc4[nH]3)CC2)nc2cccnc21
Second: Cc1cccc(C2CCN(C(=O)CCC(=O)c3ccc4c(c3)CCN(C(=O)C(F)(F)F)CC4)CC2)c1
The melting point of the first is lower: 124 °C for the first, 128 to 129 °C for the second.

Compared with `O=C1CCC(C(=O)O)(c2ccc(Cl)cc2)CC1`, `O=CC(=CCl)c1ccc(Cl)cc1` is lower in melting point: 162 to 164 °C for the first, 38 °C for the second.

First: CN1CCN(c2cc3c(cc2F)c(=O)c(C(=O)O)cn3C2CSC2)CC1
Second: CCCCCCc1c(F)cc(C2C=CC(CCCCC)=CC2)cc1F (configuration not stated)
The melting point of the first is higher: 231 to 237 °C for the first, 35 °C for the second.
